Results reported in US20150224164A1, “TREATMENT OF AUTISM SPECTRUM DISORDERS USING GLYCYL-L-2-METHYLPROLYL-L-GLUMATIC ACID” (Neuren Pharmaceuticals Limited, priority 2013, published 2015).
Where a SMILES comes first, the peptide text is derived from it.

Legend:
[1] = tested on: cortical neurons injured with okadaic acid; assay: In vitro neuroprotection, cortical cultures injured with okadaic acid (MTT); type: cell-based, rat; settings: 10 μM; okadaic acid injury; 24 hours incubation; MTT-assay
Protocol: A dam was sacrificed by CO2-treatment, and then was prepared for caesarean section. After surgery, the embryos were removed from their amniotic sacs and decapitated. The heads were placed on ice in DMEM/F12 medium for striatum and PBS+0.65% D(+)-glucose for cortex.
The two cortical hemispheres were carefully removed by spatula from the whole brain with the ventral side facing upside into a PBS+0.65% D(+)-glucose containing petri dish. Forceps were put into the rostral part (near B. olfactorius) of the cortex in order to fix the tissue and two lateral-sagittal oriented cuts were made to remove the […] and entorhinal cortices. […]
The cells were triturated once with a glass Pasteur pipette in 1 ml of Neurobasal/B27 medium and subsequently twice by using a 1 ml insulin syringe with a 22 gauge needle. […] Cells were counted and adjusted to 50,000 cells per 60 μl. […]
To cause toxic injury to neurons, we exposed neurons to 1:100 parts of okadaic acid at concentrations of 30 nM or 100 nM and 0.5 mM 3-nitropropionic acid (for cerebellar microexplants only). […] The survival rate was determined by a colorimetric end-point MTT-assay at 595 nm in a multi-well plate reader. For the cerebellar microexplants four windows (field of 0.65 mm^2) with highest cell density were chosen and cells displaying neurite outgrowth were counted.

MeCP2-/y mice = assay: Heart rate measurements (Example 10); type: in vivo, mouse; settings: 8 weeks old, treated from P15
Protocol: Real time cardiac pulse rate is measured using a tail clip sensor (Mouse OX Oximeter—Oakmont, Pa.). Mice are not anesthetized but physically restrained in a fitted open plastic tube. Prior to the recording session the tube is placed overnight in the cages housing the experimental animals to allow habituation. Body temperature is maintained at ˜82-84° F. throughout the recording time. We record 3 trials of 15 minutes for each mouse, mice are 8 weeks old and treated with vehicle or G-2-MePE from P15.

ERK1/2 = assay: Western blot of ERK and phosphorylated ERK; type: in vivo, mouse; settings: 100 mg/kg 4 weeks, 12 days after last injection
Protocol: Phosphorylated Extracellular Signal-Regulated Protein Kinase (ERK) and Protein Kinase B (Akt) expression was measured by Western blot analysis in lymphocytes from fmr1 KO and wild-type animals administered ether vehicle or G-2MePE (100 mg/kg, i.p.; 28 days) treated in the behavior experiments as previously described (Lopez Verrilli et al. 2009). ERK is a classical MAPK signal transduction protein, responsible for growth factor transduction, proliferation, cytokine response to stress and apoptosis. […]
To conduct the western blots, antibodies were used against Akt ( 1/1000) (Cell Signaling), ERK1/2 ( 1/2000) (Cell Signaling), antiphospho-Akt ( 1/1000) and antiphospho-ERK ( 1/2000) (Cell Signaling). Total Akt and ERK 1/2 protein content (phosphorylated) were evaluated by blotting membranes with antiphospho-Akt ( 1/1000) and antiphospho-ERK antibodies ( 1/2000) (Cell Signaling). Akt or ERK phosphorylation was normalized to protein content in the same sample and expressed as % of change with respect to basal conditions, considering basal levels as 100%. Protein loading was evaluated by stripping and re-blotting membranes with b-actin antibody ( 1/1000) (Sigma Chemical Co.). […]

fmr1 knockout mice = assay: Social behavior, bouts of sniffing, fmr1 knockout mice; type: in vivo, mouse; settings: 100 mg/kg i.p. 28-day
Protocol: G-2-MePE was administered at the dose of 100 mg/kg i.p. in 0.1 ml saline, once daily for 28 days. Vehicle-treated animals were injected with 0.1 ml saline daily for 28 days. Thereafter, drug or vehicle treatments were stopped and animals were tested on successive days until all tests were completed. Finally, the animals were sacrificed for determining expression of pAkt and pERK Mice are a social species, which engage in easily scored social behaviors including approaching, following, sniffing, allogrooming, aggressive encounters, sexual interactions, parental behaviors, nesting and sleeping in a group huddle. In the present studies, social recognition and social memory in mice were evaluated by assessing the amount of time spent sniffing a novel mouse upon repeated exposures, to induce familiarity, and reinstatement of high levels of sniffing when a novel stimulus animal is introduced.

central nervous system = settings: after oral administration; cited from earlier work
MeCP2 deficient mice = assay: Seizure activity, electroencephalographic recordings (Example 12); settings: mouse, in vivo
Text: Electroencephalograpic recordings of wild-type mice and MeCP2 deficient mice treated with either saline or G-2-MePE are obtained using methods described in U.S. Pat. No. 7,714,020.

C[C@@]1(C(=O)N[C@@H](CCC(=O)O)C(=O)O)CCCN1C(=O)CN [Example G-2-MePE, Glycyl-L-2-methylprolyl-L-glutamic acid] (HELM PEPTIDE1{G.[C[C@@]1(C(=O)[*:2])CCCN1[*:1]].E}$$$$V2.0)
neuroprotection [1]: 59% | occurrence of irregular, lower heart rate (MeCP2-/y mice): significantly reduced | phosphorylated ERK1/2 (pERK) (ERK1/2; fmr1 KO vs vehicle, p<0.05): significantly reduced | total ERK expression levels (ERK1/2; fmr1 KO): increase in ERK expression levels | heightened sniffing of the presented mouse (fmr1 knockout mice; fmr1 KO): nullified | sniffing (fmr1 knockout mice; wild-type group): no significant effect | activity in the central nervous system (central nervous system): active in the central nervous system | motor seizures and non-convulsive seizures (MeCP2 deficient mice): effective in decreasing both motor seizures and non-convulsive seizures
